Assay results as given in ChEMBL document CHEMBL4400538, “Discovery of Carboline Derivatives as Potent Antifungal Agents for the Treatment of Cryptococcal Meningitis” (J Med Chem, 2019).
Active and inactive are the calls of the source. The calls are words filed in the database; no cut-off is given here.

Columns and labels:
Nakaseomyces glabratus = experiment: Antifungal activity against Candida glabrata 8535 after 48 hrs by spectrophotometery; assay type: functional; conditions: Nakaseomyces glabratus, 8535, 48 h
Cryptococcus neoformans [1] = experiment: Antifungal activity against Cryptococcus neoformans H99 assessed as cell wall collapse at 4 ug/ml after 24 hrs by TEM analysis; assay type: functional, organism-based; conditions: var grubii H99
Cryptococcus gattii = experiment: Antifungal activity against Cryptococcus gattii ATCC 14116 after 72 hrs by spectrophotometery; conditions: ATCC 14116, 72 h
Cryptococcus neoformans [2] = experiment: Induction of up-regulation of APC/C gene expression in Cryptococcus neoformans H99 at 2 ug/ml after 24 hrs by RNA-seq analysis based KEGG pathway enrichment analysis; assay type: functional, organism-based; conditions: var grubii H99
Candida parapsilosis = experiment: Antifungal activity against Candida parapsilosis 5008 after 48 hrs by spectrophotometery; assay type: functional; conditions: Lodderomyces parapsilosis, 5008, 48 h
Cryptococcus neoformans [3] = experiment: Induction of up-regulation of Mps1 gene expression in Cryptococcus neoformans H99 at 2 ug/ml after 24 hrs by RNA-seq analysis based KEGG pathway enrichment analysis; assay type: functional, organism-based; conditions: var grubii H99
Cryptococcus neoformans [4] = experiment: Antibiofilm activity against Cryptococcus neoformans H99 at 16 ug/ml after 90 mins by XTT assay; assay type: functional, organism-based; conditions: var grubii H99
Cryptococcus neoformans [5] = experiment: Induction of cell cycle arrest in Cryptococcus neoformans H99 assessed as accumulation at G2 phase at 1 to 2 ug/ml after 24 hrs by propidium iodide-staining based FACS analysis (reference value: 3.86%); assay type: functional, var grubii H99
[6] = Clearance in ICR mouse liver microsomes at 1 uM measured up to 45 mins in presence of NADPH by LC-MS/MS analysis; assay type: ADME, Microsome; conditions: 0.75 h
Cryptococcus neoformans [7] = experiment: Induction of up-regulation of Lig1 gene expression in Cryptococcus neoformans H99 at 2 ug/ml after 24 hrs by RNA-seq analysis based KEGG pathway enrichment analysis; assay type: functional, organism-based; conditions: var grubii H99
HUVEC = experiment: Cytotoxicity against human HUVEC; assay type: cell-based
[8] = Solubility of the compound; assay type: physicochemical
[9] = Effective permeability of the compound after 12 hrs by PAMPA; assay type: ADME; conditions: read-out: Peff
Cryptococcus neoformans [10] = experiment: Induction of cell cycle arrest in Cryptococcus neoformans H99 assessed as accumulation at S phase at 1 to 2 ug/ml after 24 hrs by propidium iodide-staining based FACS analysis (reference value: 51.64%); assay type: functional, var grubii H99
Cryptococcus neoformans [11] = experiment: Induction of up-regulation of MCM gene expression in Cryptococcus neoformans H99 at 2 ug/ml after 24 hrs by RNA-seq analysis based KEGG pathway enrichment analysis; assay type: functional, organism-based; conditions: var grubii H99
Cryptococcus neoformans [12] = experiment: Induction of up-regulation of Ycg1 gene expression in Cryptococcus neoformans H99 at 2 ug/ml after 24 hrs by RNA-seq analysis based KEGG pathway enrichment analysis; assay type: functional, organism-based; conditions: var grubii H99
Aspergillus fumigatus = experiment: Antifungal activity against Aspergillus fumigatus 7544 after 48 hrs by spectrophotometery; assay type: functional; conditions: Aspergillus fumigatus, 7544, 48 h
Cryptococcus neoformans [13] = experiment: Antifungal activity against Cryptococcus neoformans H99 infected in ICR mouse assessed as reduction in brain fungal load at 20 mg/kg, po administered daily for 5 days; assay type: functional, organism-based; conditions: var grubii H99
Cryptococcus neoformans [14] = experiment: Antifungal activity against Cryptococcus neoformans H99 after 48 hrs by growth curve assay; assay type: functional
Cryptococcus neoformans [15] = experiment: Antifungal activity against Cryptococcus neoformans H99 after 72 hrs by growth curve assay; assay type: functional; conditions: var grubii H99 
Cryptococcus neoformans [16] = experiment: Antifungal activity against Cryptococcus neoformans H99 assessed as up-regulation of cyclin B1 expression after 24 hrs by Western blot analysis; assay type: functional, organism-based; conditions: var grubii H99
Cryptococcus neoformans [17] = experiment: Antifungal activity against Cryptococcus neoformans H99 assessed as inhibition of microbial growth at 8 ug/ml after 12 to 48 hrs by growth curve assay; assay type: functional; conditions: var grubii H99, read-out: GI
Cryptococcus neoformans [18] = experiment: Antifungal activity against Cryptococcus neoformans H99 assessed as up-regulation of CDK1 expression after 24 hrs by Western blot analysis; assay type: functional, organism-based; conditions: var grubii H99
Cryptococcus neoformans [19] = experiment: Antibiofilm activity against Cryptococcus neoformans H99 assessed as inhibition of cellular surface hydrophobicity at 5 ug/ml incubated for 24 hrs by water-hydrocarbon two-phase assay; assay type: functional, organism-based; conditions: var grubii H99
Cryptococcus neoformans [20] = experiment: Antifungal activity against Cryptococcus neoformans H99 assessed as induction of gamma-H2AX foci at 2 ug/ml after 48 hrs by Hoechst-33342 staining based fluorescence microscopy; assay type: functional, organism-based; conditions: var grubii H99
Cryptococcus neoformans [21] = experiment: Antifungal activity against Cryptococcus neoformans ATCC 34877 after 72 hrs by spectrophotometery; assay type: functional; conditions: ATCC 34877, 72 h
Cryptococcus neoformans [22] = experiment: Induction of up-regulation of PCNA gene expression in Cryptococcus neoformans H99 at 2 ug/ml after 24 hrs by RNA-seq analysis based KEGG pathway enrichment analysis; assay type: functional, organism-based; conditions: var grubii H99
Candida albicans [23] = experiment: Antifungal activity against Candida albicans 7781 after 48 hrs by spectrophotometery; assay type: functional; conditions: Candida albicans, 7781, 48 h
Cryptococcus neoformans [24] = experiment: Inhibition of melanin production in Cryptococcus neoformans H99 at 2.5 ug/ml; assay type: functional, organism-based; conditions: var grubii H99
Cryptococcus neoformans [25] = experiment: Induction of up-regulation of Mob1 gene expression in Cryptococcus neoformans H99 at 2 ug/ml after 24 hrs by RNA-seq analysis based KEGG pathway enrichment analysis; assay type: functional, organism-based; conditions: var grubii H99
Candida albicans [26] = experiment: Antifungal activity against Candida albicans 0304103 after 48 hrs by spectrophotometery; assay type: functional; conditions: Candida albicans, 0304103, 48 h
[27] = Half life in ICR mouse liver microsomes at 1 uM measured up to 45 mins in presence of NADPH by LC-MS/MS analysis; assay type: ADME, Microsome
Nannizzia gypsea = experiment: Antifungal activity against Microsporum gypseum MZC after 48 hrs by spectrophotometery; assay type: functional
Cryptococcus neoformans [28] = experiment: Antifungal activity against Cryptococcus neoformans H99 infected in ICR mouse assessed as reduction in brain fungal load at 10 mg/kg, ip administered once daily; assay type: functional, organism-based; conditions: var grubii H99
Cryptococcus neoformans [29] = experiment: Induction of up-regulation of ORC gene expression in Cryptococcus neoformans H99 at 2 ug/ml after 24 hrs by RNA-seq analysis based KEGG pathway enrichment analysis; assay type: functional, organism-based; conditions: var grubii H99
Cryptococcus neoformans [30] = experiment: Antifungal activity against Cryptococcus neoformans H99 assessed as up-regulation of Cdc25C expression after 24 hrs by Western blot analysis; assay type: functional, organism-based; conditions: var grubii H99
Cryptococcus neoformans [31] = experiment: Antifungal activity against Cryptococcus neoformans H99 assessed as nuclear pyknosis at 4 ug/ml after 24 hrs by TEM analysis; assay type: functional, organism-based; conditions: var grubii H99
Cryptococcus neoformans [32] = experiment: Antifungal activity against Cryptococcus neoformans H99 assessed as formation of abnormally shaped cells at 4 ug/ml after 24 hrs by TEM analysis; assay type: functional, organism-based; conditions: var grubii H99
Cryptococcus neoformans [33] = experiment: Induction of cell cycle arrest in Cryptococcus neoformans H99 assessed as accumulation at G1 phase at 1 to 2 ug/ml after 24 hrs by propidium iodide-staining based FACS analysis (reference value: 44.50%); assay type: functional, var grubii H99
[34] = Protein binding in mouse plasma; assay type: ADME, cell-free
Cryptococcus neoformans [35] = experiment: Induction of up-regulation of PLK1 gene expression in Cryptococcus neoformans H99 at 2 ug/ml after 24 hrs by RNA-seq analysis based KEGG pathway enrichment analysis; assay type: functional, organism-based; conditions: var grubii H99
Trichophyton rubrum = experiment: Antifungal activity against Trichophyton rubrum TIA after 48 hrs by spectrophotometery; assay type: functional
Cryptococcus neoformans [36] = experiment: Induction of up-regulation of PNAC gene expression in Cryptococcus neoformans H99 at 2 ug/ml after 24 hrs by RNA-seq analysis based KEGG pathway enrichment analysis; assay type: functional, organism-based; conditions: var grubii H99
Cryptococcus neoformans [37] = experiment: Inhibition of urease production in Cryptococcus neoformans H99 at 10 ug/ml; assay type: functional, organism-based; conditions: var grubii H99
Cryptococcus neoformans [38] = experiment: Induction of up-regulation of DNA polymerase alpha2 gene expression in Cryptococcus neoformans H99 at 2 ug/ml after 24 hrs by RNA-seq analysis based KEGG pathway enrichment analysis; assay type: functional, organism-based; conditions: var grubii H99
Cryptococcus neoformans [39] = experiment: Induction of up-regulation of Hs17 gene expression in Cryptococcus neoformans H99 at 2 ug/ml after 24 hrs by RNA-seq analysis based KEGG pathway enrichment analysis; assay type: functional, organism-based; conditions: var grubii H99

Clc1ccc(OCCCn2c3c(c4cc(Cl)ccc42)CCNC3)cc1.O=C(O)C(F)(F)F
MIC80 (Nakaseomyces glabratus): 1 µg/mL | Activity (Cryptococcus neoformans [1]): Active | MIC80 (Cryptococcus gattii): 1 µg/mL | Activity (Cryptococcus neoformans [2]): Active | MIC80 (Candida parapsilosis): 2 µg/mL | Activity (Cryptococcus neoformans [3]): Active | Activity (Cryptococcus neoformans [4]): Active | Activity (Cryptococcus neoformans [5]): 10.34% | scaled CLint [6]: 78 mL/min/kg | Activity (Cryptococcus neoformans [7]): Active | Activity (HUVEC): Non-Toxic | solubility [8]: 54.6 µg/mL | Papp at 12 h [9]: 1.8 ×10⁻⁶ cm/s | Activity (Cryptococcus neoformans [10]): 53.21% | Activity (Cryptococcus neoformans [11]): Active | Activity (Cryptococcus neoformans [12]): Active | MIC80 (Aspergillus fumigatus): 16 µg/mL | Activity (Cryptococcus neoformans [13]): Active | Activity (Cryptococcus neoformans [14]; var grubii H99): Dose-dependent effect | MIC80 (Cryptococcus neoformans [14]; var grubii H99 ): 0.25 µg/mL | MIC80 (Cryptococcus neoformans [15]): 0.5 µg/mL | Activity (Cryptococcus neoformans [16]): Dose-dependent effect | inhibition of growth at 8 µg/mL (Cryptococcus neoformans [17]): 100% | Activity (Cryptococcus neoformans [18]): Dose-dependent effect | Activity (Cryptococcus neoformans [19]): Active | Activity (Cryptococcus neoformans [20]): Active | MIC80 (Cryptococcus neoformans [21]): 0.5 µg/mL | Activity (Cryptococcus neoformans [22]): Active | MIC80 (Candida albicans [23]): 4 µg/mL | inhibition (Cryptococcus neoformans [24]): Active | Activity (Cryptococcus neoformans [25]): Active | MIC80 (Candida albicans [26]): 2 µg/mL | half-life at 1 µM [27]: 1.17 h | MIC80 (Nannizzia gypsea): 8 µg/mL | Activity (Cryptococcus neoformans [28]): Active | Activity (Cryptococcus neoformans [29]): Active | Activity (Cryptococcus neoformans [30]): Dose-dependent effect | Activity (Cryptococcus neoformans [31]): Active | Activity (Cryptococcus neoformans [32]): Active | Activity (Cryptococcus neoformans [33]): 36.45% | PPB [34]: Active | Activity (Cryptococcus neoformans [35]): Active | MIC80 (Trichophyton rubrum): 4 µg/mL | Activity (Cryptococcus neoformans [36]): Active | inhibition (Cryptococcus neoformans [37]): inactive | Activity (Cryptococcus neoformans [38]): Active | Activity (Cryptococcus neoformans [39]): Active
